Consider 2 molecules from patent publication US4962024A, “Signal enhancement in assay for an enzyme” (priority 1988, dated 1990).

This assay addresses acetyl cholinesterase (AChE) (Homo sapiens, UniProt P22303). Put plainly: Inhibition constants: inhibition of acetyl cholinesterase (AChE), acetyl thiocholine and Ellman's reagent. The assay is classed as biochemical. The method, then: Inhibition constants were measured in 50 mM Tris pH=8.0. Enzyme and inhibitor were incubated at ambient temperature for 20 minutes. Substrate for the enzyme was then added and the rate of hydrolysis was followed spectrophotometrically. The substrate for PLE and RLE was o-nitrophenylbutyrate and for AChE was acetyl thiocholine and Ellman's reagent.
In general terms: Ellman's reagent forms a yellow product with free thiols.

Where a name gives a salt, the structure may show the parent alone. Read-outs that look alike come from different tables or passages of the source.

The term Ki denotes a dissociation constant, usually derived from enzyme kinetics or from competition with a known ligand.

Chain of acetyl cholinesterase (AChE) (P22303 32-614): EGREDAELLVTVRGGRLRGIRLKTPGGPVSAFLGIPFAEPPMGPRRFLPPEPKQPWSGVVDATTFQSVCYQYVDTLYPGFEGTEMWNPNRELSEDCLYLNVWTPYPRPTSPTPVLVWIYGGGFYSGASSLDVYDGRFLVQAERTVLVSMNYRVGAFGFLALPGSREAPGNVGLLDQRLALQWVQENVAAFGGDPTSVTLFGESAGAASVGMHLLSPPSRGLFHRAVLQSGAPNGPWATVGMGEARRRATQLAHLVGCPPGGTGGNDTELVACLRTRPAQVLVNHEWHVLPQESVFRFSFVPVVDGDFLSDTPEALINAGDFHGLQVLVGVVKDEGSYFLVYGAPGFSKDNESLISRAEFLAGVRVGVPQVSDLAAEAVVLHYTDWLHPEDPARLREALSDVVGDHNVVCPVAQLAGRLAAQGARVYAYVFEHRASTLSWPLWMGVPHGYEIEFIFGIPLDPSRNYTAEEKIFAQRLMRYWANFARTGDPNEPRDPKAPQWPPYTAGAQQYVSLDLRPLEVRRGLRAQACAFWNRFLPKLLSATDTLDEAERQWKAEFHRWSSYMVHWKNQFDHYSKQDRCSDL

In the case of `C[N+](C)(CCO)CCCC(=O)C(F)(F)F` [N,N-dimethyl-N-[2-(hydroxy)ethyl]-5,5,5-trifluoro-4-oxopentanaminium, hydroxide salt], the Ki (AChE, 50 mM Tris pH=8.0, 20 minutes incubation at ambient temperature, acetyl thiocholine and Ellman's reagent, read-out: Ki (M)* (Esterase)) came to 5e-09 M.

Molecule `C[N+](C)(CCCCO)CCCC(=O)C(F)(F)F` [N,N-dimethyl-N-[4-(hydroxy)butyl] 5,5,5-trifluoro-4-oxopentanaminium, hydroxide salt] returned a Ki of 6.5e-08 M.
